Assay results: patent US20060052751A1, “Fast perfusion cell chamber” (priority 2004, published 2006)

System: GABA transporter isoform GAT4
Experiment: GABA concentration jump, two-electrode voltage clamp in Xenopus laevis oocyte in fast perfusion chamber
Format: cell-based
Settings: oocyte expressing GAT4, N=6
Excerpt: The usefulness of the Xenopus oocyte expression system for a variety of electrogenic membrane proteins has driven us to invent a novel rapid perfusion method which allows fast (≦20 ms) solution changes around intact, voltage-clamped Xenopus laevis oocytes (FIGS. 1-4). The present invention permits rapid solution changes to be made about voltage-clamped Xenopus laevis oocytes, while preserving the integrity of the cellular membrane. Defolliculated oocytes (intact vitelline membrane) and conventional two-electrode voltage clamp are used. For fast perfusion, the oocyte is placed in-line with the flow of buffer. The oocyte is supported primarily by an oocyte support base (6) equipped with oocyte support prongs (12), which prevent cellular movement. The current and voltage electrodes (4, 5) (for electrophysiological measurements) provide some support. Buffer flows from above the oocyte in a vertical direction (driven by gravity), at adjustable rates ranging from 1-50 ml/min. Healthy oocytes withstand maximal flow rates due to the chamber's support mechanisms.
In the absence of oocyte in the chamber, the fluid exchange rate at the recording electrodes is ≈3 ms at maximal buffer flow rates (FIG. 5), the fastest solution change rate ever reported for Xenopus laevis oocytes. The exchange rate with oocyte in place is more difficult to determine due to the highly invaginated surface of the cell (i.e., microvilli), but is estimated to be no more than ≈20 ms. The geometry of the oocyte, microvilli in the oocyte plasma membrane, as well as the oocyte vitelline membrane most likely contribute to this slowing effect. […] A number of features of the system have been examined with oocytes expressing the human γ-aminobutyric acid transporter protein and compared with results obtained from traditional methods (FIGS. 6 and 7). This system permits examination of ligand interaction with electrogenic membrane proteins, a proposition which has heretofore been unattainable. The system also allows for rapid determination of kinetic parameters for drugs of interest.
FIGS. 6A and 6B show a representative γ-aminobutyric acid (GABA) concentration jump in an oocyte expressing the GABA transporter isoform GAT4. The membrane potential (Vm) was held at −50 mV and the GABA concentration was 0.5 mM. […] This rapid transient induced by a concentration jump represents the fastest ever reported with the two-electrode voltage clamp for any membrane protein expressed in the Xenopus laevis oocyte expression system. […] The steady-state current represents steady-state Na^+/Cl^−/GABA cotransport into the cell. Only the steady-state current is observed in conventional two-electrode voltage clamp records (not shown). The rapid transient represents fast GABA-evoked electrogenic transitions. […] Referring to FIG. 6B, if GABA and Na^+ are simultaneously introduced, the rapid transient phase is absent and the evoked current follows a monoexponential behavior (τ=602±98 ms; N=6). […] Because these events are very fast events, these measurements would not have been possible without the present invention. Thus, our perfusion chamber allows the acquisition of novel information from electrogenic membrane transport proteins expressed in oocytes.

In the case of NCCCC(=O)O [GABA, γ-aminobutyric acid], the “time constant (τ) of monoexponential evoked current” value (GABA and Na+ simultaneously introduced, rapid transient phase absent) is reported as 602 ± 98 ms, the “time constant of decay of rapid transient phase of GABA-evoked current” value (Vm -50 mV, GABA 0.5 mM) is reported as 15 ± 2 ms and the “time constant of mono-exponential decay of GABA-evoked current back to baseline upon rapid removal of GABA” value (Vm -50 mV, GABA 0.5 mM) is reported as 4.0 ± 0.6 s. For the same molecule, the “time constant of mono-exponential decay of slow transient phase to steady-state” value (Vm -50 mV, GABA 0.5 mM) was 1.3 ± 0.1 s and the “time-to-peak of rapid transient phase of GABA-evoked inward current” value (Vm -50 mV, GABA 0.5 mM) was 20 ± 5 ms.
